Experimental data published in the NIST ThermoML archive (doi:10.1007/s10765-010-0773-1).
Numbers after ± are expanded uncertainties.

Columns and labels:
[1] = refractive index (Na D-line) (dimensionless); settings: 298.15 K; 101.33 kPa; Liquid; Standard Abbe refractometry
[2] = xn = mol fraction of the nth substance listed; settings: 101 kPa, Liquid, x2 = 0; for mass density: Vibrating tube method; for speed of sound: Pulse-echo method

## BrCBr [dibromomethane]
[1]
  refractive index: 1.3851 ± 0.0011

## CCCCCCC [heptane] + BrCBr
[2]; 288.15 K
  mass density: 688.15 ± 0.25 kg/m3
[2]; 292.87 K
  speed of sound: 1152.5 ± 1.6 m/s
[2]; 293.15 K
  mass density: 683.94 ± 0.25 kg/m3
[2]; 298.14 K
  speed of sound: 1129.7 ± 1.6 m/s
[2]; 298.15 K
  mass density: 679.7 ± 0.25 kg/m3
[2]; 303.12 K
  speed of sound: 1108.2 ± 1.6 m/s
[2]; 303.15 K
  mass density: 675.44 ± 0.25 kg/m3
[2]; 308.1 K
  speed of sound: 1086.8 ± 1.6 m/s
[2]; 308.15 K
  mass density: 671.15 ± 0.25 kg/m3
[2]; 313.15 K
  mass density: 666.83 ± 0.25 kg/m3
[2]; 313.27 K
  speed of sound: 1064.7 ± 1.6 m/s
[2]; 318.15 K
  mass density: 662.48 ± 0.25 kg/m3
